{"source": "patent US5532231A", "about": "“Antibacterial agent” (priority 1994, dated 1996)", "key": {"E. coli ESS [1]": {"system": "E. coli ESS", "experiment": "Bactericidal effect when bound to mouse tissues", "type": "cell-based, Escherichia coli", "conditions": "4 μg TA or 20 μg Focusin, 5 h", "method": "Two mice were sacrificed by exposure to ether. The bladder, eyes, intestines, lungs, heart, teeth, liver, spleen and kidneys were removed by dissection. Each experimental set consisted of three test tubes. A piece of each tissue type was placed in each of the three test tubes. The amount of tissue per tube were as follows: bladder 1/3, eye 1/2, intestine 1 cm, lung 1/2, heart 1/3, fang tooth 1/2, liver 1/3, spleen 1/3 and kidney 1/2. One test tube contained a control tissue which was treated only with the solvent used for dissolving the antibacterial agent, usually 50% ethanol. The second and third test tubes contained tissues were treated with 4 μg TA or 20 μg Focusin, respectively.\nFollowing application of the antibacterial agent or the control solution, the tissues were allowed to dry in a hood for 30 mins., and then placed in the test tubes.\nOne milliliter of sterile saline was then added to each test tube and the tubes were then incubated with shaking (50 rpm) at 37° C. for one hour. The amount of antibacterial agent that was released to the saline was measured following chloroform extraction by the disc filter assay.\nThe tissues were then transferred to exponentially growing cultures of E. coli ESS in NB at a concentration of 10^5 cells/ml. Incubation was at 37° C. and continued for 5 hours, following which the number of viable cells was checked."}, "E. coli ESS Kan^r [2]": {"system": "E. coli ESS Kan^r", "experiment": "Paper disc filter antibiotic assay (zone of inhibition)", "type": "cell-based, Escherichia coli", "method": "Escherichia coli ESS Kan^r, is a kanamycin resistant strain of E. coli ESS, derived by transducing E. coli ESS with P1:TnV, Kan^r. This strain was used for the standard antibiotic assays.\nLB Kan medium was solidified by 1.5% Bacto agar (Difco). For the antibiotic assay, Nutrient Broth agar plates were used. NB medium is 0.8% Nutrient Broth (Difco) containing 0.5% NaCl (Merck). NB was solidified by 1.8% Bacto agar (Difco). The NB plates were overlaid by 3.5 ml NB soft agar (0.9% Bacto agar) mixed with 0.1 ml E. coli ESS Kan^r overnight culture.\n(§1) Antibiotic activity against E. coli ESS Kan^r was determined by the paper disc filter assay (Leo et al., 1945). Unknown quantities of antibiotic TA or Focusin, dissolved in ethanol, saline or NB were applied to paper disc filters (6 mm diameter; Schleicher and Schull). After allowing the ethanol to evaporate in the hood for about 15 mins, the dry filters were placed on nutrient broth plates which had been overlaid with an overnight culture of E. coli ESS Kan^r as described above.\n(§2) The diameter of the zone of inhibition was recorded after 18 hours in incubation at 37° C. The concentration of the antibacterial agents were determined from a standard inhibition curve prepared with known quantities of TA and Focusin."}, "E. coli ESS [3]": {"system": "E. coli ESS", "experiment": "Release of Focusin from mouse tissue: inhibition by the 4th wash liquid", "type": "cell-based, Escherichia coli", "conditions": "for Inhibition % by the 4th wash liquid: 10 μg Focusin", "method": "(§3) Focusin was tested in the same manner as that described above (under 8.1) with the exception that the tissues in the test tube were washed four times with a solution of 1 ml sterile saline. Each saline wash was for 1 hour at 37° C. Following incubation, the washing saline solution was added to an exponentially growing cultures of E. coli ESS in a concentration of 10^5 cells/ml.\n(§4) The cultures with the saline wash were incubated at 37° C. for 6 hours and then viable cell count was performed in order to estimate the amount of killing by the antibacterial agent that were released from the tissues. After the four washes the tissues were transferred to 10^5 E. coli ESS log cultures and were then incubated for 5 hours. The tissues were transferred in this way for three times, each time the percentage of inhibition by the treated tissue was measured by viable count.\n(§5) The tissues were treated as described in Section 8.2 above."}, "Staphylococcus aureas": {"system": "Staphylococcus aureas", "experiment": "Antimicrobial spectrum, liquid media, viable cell count", "type": "cell-based, Staphylococcus aureus", "conditions": "saturating concentrations", "method": "(§6) Saturated solutions of TA and Focusin were prepared by adding 1.14 μg TA and 7 μg Focusin to 1 ml LB (final conc. of 1% ethanol). About 10^5 bacteria of various strains were then added. The control was bacteria in the same medium with no antibacterial agents. The bacteria were introduced at 37° C. with shaking at 100 rpm. When the control became turbid, viable cell count was performed on LB agar plates. Growth inhibition is presented as percentage of the no antibiotic control."}, "tested bacterial strains": {"system": "tested bacterial strains", "experiment": "Antimicrobial spectrum, overall", "type": "cell-based", "method": "as §6"}, "E. coli ESS Kan^r [4]": {"system": "E. coli ESS Kan^r", "experiment": "Sensitivity to combined exposure to light and air (remaining activity by paper disc bioassay)", "type": "physicochemical, Escherichia coli", "method": "as §1, §2\n100 ng of TA and Focusin dissolved in ethanol were applied to paper filters and allowed to dry in a hood for 15 mins. The filters were then exposed to light from a fluorescent lamp in the hood; the distance from the lamp to the filters was approximately 40 cm. The controls were placed in the dark under a plastic box within the hood.\nAfter exposure of the filters to the light for varying periods of time, the remaining activity of the agents was measured by the paper disc bioassay and the results are shown in the following Table 1: […]"}, "E. coli ESS [5]": {"system": "E. coli ESS", "experiment": "Killing effect of the washed treated mouse tissue", "type": "cell-based, Escherichia coli", "conditions": "for Inhibition % by the treated tissue*** / Inhibition % by the treated tissue**: 10 μg Focusin; for Inhibition % by the treated tissue***: after third transfer", "method": "as §3, §4, §5\nAfter the fourth wash, the treated tissues were transferred to E. coli ESS cultures (10^5 cells) in nutrient broth. The culture tubes were then incubated at 37° C. for 6 hours and the extent of growth inhibition was measured by viable cell count. The treated tissues were transferred to E. coli cultures two more times (a total of three times), and each time the percentage of growth inhibition by the treated tissues was checked."}, "Mycobacteria smegmatis": {"system": "Mycobacteria smegmatis", "experiment": "Antimicrobial spectrum, liquid media, viable cell count", "type": "cell-based, Mycobacterium smegmatis", "conditions": "saturating concentrations", "method": "as §6"}}, "note": "“Also recorded” adds a separate entry of the source.", "data": [{"smiles": "CCCC1OC(=O)C(C)CC(C)CCCCC(=O)CCCC(CC)CCCC(COC)CCC(O)C(O)CC(O)CNC1=O", "note": "(stereo not shown) [Focusin]", "values": [{"measurement": "Inhibition % by the treated tissue", "setting": "E. coli ESS [1]; bladder", "value": 100, "unit": "%"}, {"measurement": "Inhibition % by the treated tissue", "setting": "E. coli ESS [1]; heart", "value": 90, "unit": "%"}, {"measurement": "Inhibition % by the treated tissue", "setting": "E. coli ESS [1]; intestine", "value": 100, "unit": "%"}, {"measurement": "Inhibition % by the treated tissue", "setting": "E. coli ESS [1]; kidney", "value": 100, "unit": "%"}, {"measurement": "Inhibition % by the treated tissue", "setting": "E. coli ESS [1]; liver", "value": 94, "unit": "%"}, {"measurement": "Inhibition % by the treated tissue", "setting": "E. coli ESS [1]; lungs", "value": 100, "unit": "%"}, {"measurement": "Inhibition % by the treated tissue", "setting": "E. coli ESS [1]; spleen", "value": 100, "unit": "%"}, {"measurement": "Inhibition % by the treated tissue", "setting": "E. coli ESS [1]; teeth", "value": 100, "unit": "%"}, {"measurement": "activity relative to TA at high concentrations", "setting": "E. coli ESS Kan^r [2]; high concentrations", "value": "1/10"}, {"measurement": "activity relative to TA at low concentrations", "setting": "E. coli ESS Kan^r [2]; low concentrations", "value": "approximately 1/8"}, {"measurement": "amount giving an inhibition zone of 11 mm", "setting": "E. coli ESS Kan^r [2]; zone 11 mm, paper disc", "value": 640, "unit": "ng"}, {"measurement": "amount required to obtain a zone of inhibition of about 2 mm", "setting": "E. coli ESS Kan^r [2]; zone about 2 mm, paper disc", "value": 60, "unit": "ng"}, {"measurement": "inhibition of E. coli growth by the fourth liquid wash (in words)", "setting": "E. coli ESS [3]; all tissues except liver", "value": "completely inhibit the E. coli growth"}, {"measurement": "Inhibition % by the 4th wash liquid", "setting": "E. coli ESS [3]; bladder", "value": 100, "unit": "%"}, {"measurement": "Inhibition % by the 4th wash liquid", "setting": "E. coli ESS [3]; eye", "value": 100, "unit": "%"}, {"measurement": "Inhibition % by the 4th wash liquid", "setting": "E. coli ESS [3]; heart", "value": 100, "unit": "%"}, {"measurement": "Inhibition % by the 4th wash liquid", "setting": "E. coli ESS [3]; intestine", "value": 100, "unit": "%"}, {"measurement": "Inhibition % by the 4th wash liquid", "setting": "E. coli ESS [3]; kidney", "value": 100, "unit": "%"}, {"measurement": "Inhibition % by the 4th wash liquid", "setting": "E. coli ESS [3]; liver", "value": 67, "unit": "%"}, {"measurement": "Inhibition % by the 4th wash liquid", "setting": "E. coli ESS [3]; lungs", "value": 100, "unit": "%"}, {"measurement": "Inhibition % by the 4th wash liquid", "setting": "E. coli ESS [3]; spleen", "value": 100, "unit": "%"}, {"measurement": "Inhibition % by the 4th wash liquid", "setting": "E. coli ESS [3]; teeth", "value": 100, "unit": "%"}, {"measurement": "killing", "setting": "Staphylococcus aureas", "value": 100, "unit": "%"}, {"measurement": "antibacterial activity spectrum (in words)", "setting": "tested bacterial strains", "value": "broad spectrum antibacterial activity against both Gram-positive and Gram-negative bacteria"}, {"measurement": "activity after exposure to light and air", "setting": "E. coli ESS Kan^r [4]; 0 hours", "value": 100, "unit": "%"}, {"measurement": "activity after exposure to light and air", "setting": "E. coli ESS Kan^r [4]; 1 hour", "value": 100, "unit": "%"}, {"measurement": "activity after exposure to light and air", "setting": "E. coli ESS Kan^r [4]; 4 hours", "value": 100, "unit": "%"}, {"measurement": "activity after exposure to light and air", "setting": "E. coli ESS Kan^r [4]; 6 hours", "value": 100, "unit": "%"}, {"measurement": "activity after exposure to light and air", "setting": "E. coli ESS Kan^r [4]; 8 hours", "value": 100, "unit": "%"}, {"measurement": "activity after exposure to light and air", "setting": "E. coli ESS Kan^r [4]; 20 hours", "value": 100, "unit": "%"}, {"measurement": "stability to exposure to light and air (in words)", "setting": "E. coli ESS Kan^r [4]; combined light and air, up to 20 hours", "value": "much more stable to exposure to light and air than the TA antibiotic; also recorded: completely resistant to breakdown"}, {"measurement": "inhibition by the washed tissues containing bound focusin", "setting": "E. coli ESS [5]; all tissues, first transfer", "value": "≥ 99", "unit": "%"}, {"measurement": "inhibition after the third transfer (in words)", "setting": "E. coli ESS [5]; bladder and eye", "value": "no inhibition was observed"}, {"measurement": "Inhibition % by the treated tissue***", "setting": "E. coli ESS [5]; bladder", "value": 0, "unit": "%"}, {"measurement": "Inhibition % by the treated tissue**", "setting": "E. coli ESS [5]; bladder, first transfer", "value": "> 99", "unit": "%"}, {"measurement": "Inhibition % by the treated tissue***", "setting": "E. coli ESS [5]; eye", "value": 0, "unit": "%"}, {"measurement": "Inhibition % by the treated tissue**", "setting": "E. coli ESS [5]; eye, first transfer", "value": "> 99", "unit": "%"}, {"measurement": "Inhibition % by the treated tissue***", "setting": "E. coli ESS [5]; heart", "value": 98, "unit": "%"}, {"measurement": "Inhibition % by the treated tissue**", "setting": "E. coli ESS [5]; heart, first transfer", "value": 100, "unit": "%"}, {"measurement": "Inhibition % by the treated tissue***", "setting": "E. coli ESS [5]; intestine", "value": 38, "unit": "%"}, {"measurement": "Inhibition % by the treated tissue**", "setting": "E. coli ESS [5]; intestine, first transfer", "value": 100, "unit": "%"}, {"measurement": "Inhibition % by the treated tissue***", "setting": "E. coli ESS [5]; kidney", "value": 90, "unit": "%"}, {"measurement": "Inhibition % by the treated tissue**", "setting": "E. coli ESS [5]; kidney, first transfer", "value": 100, "unit": "%"}, {"measurement": "Inhibition % by the treated tissue***", "setting": "E. coli ESS [5]; liver", "value": 100, "unit": "%"}, {"measurement": "Inhibition % by the treated tissue**", "setting": "E. coli ESS [5]; liver, first transfer", "value": 99, "unit": "%"}, {"measurement": "Inhibition % by the treated tissue***", "setting": "E. coli ESS [5]; lungs", "value": 17, "unit": "%"}, {"measurement": "Inhibition % by the treated tissue**", "setting": "E. coli ESS [5]; lungs, first transfer", "value": 100, "unit": "%"}, {"measurement": "Inhibition % by the treated tissue***", "setting": "E. coli ESS [5]; spleen", "value": 98, "unit": "%"}, {"measurement": "Inhibition % by the treated tissue**", "setting": "E. coli ESS [5]; spleen, first transfer", "value": 100, "unit": "%"}, {"measurement": "Inhibition % by the treated tissue***", "setting": "E. coli ESS [5]; teeth", "value": 91, "unit": "%"}, {"measurement": "Inhibition % by the treated tissue**", "setting": "E. coli ESS [5]; teeth, first transfer", "value": 100, "unit": "%"}, {"measurement": "killing", "setting": "Mycobacteria smegmatis", "value": 0, "unit": "%"}]}]}
